Test results reported in patent US6613718B2, “Aryl ether derivatives and processes for their preparation and herbicidal and desiccant compositions containing them” (Ishihara Sangyo Kaisha, Ltd., priority 2001, dated 2003).

Legend:
Type in all cases: in vivo
Conditions in all cases: 14 days after application
[1] = test system: barnyardgrass (Echinochloa crus-galli, ECHCG); assay: Pre-emerge greenhouse herbicide activity screening, phytotoxicity rating
How it was run: (§1)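 Track-sprayer application, nozzle 40-45 cm above soil or canopy; compound in acetone at 15 to 1000 g ai/ha. Visual 0–100 rating at 14 days after treatment.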

[2] = test system: common ragweed (Ambrosia artemisiifolia L., AMBEL); assay: as above
How it was run: as §1

[3] = test system: green foxtail (Setaria viridis, SETVI); assay: as above
How it was run: as §1

[4] = test system: ivyleaf morningglory (Ipomoea hederacea, IPOHE); assay: as above
How it was run: as §1

[5] = test system: johnsongrass (Sorghum halepense, SORHA); assay: as above
How it was run: as §1

[6] = test system: lambsquarters (Chenopodium album, CHEAL); assay: as above
How it was run: as §1

[7] = test system: large crabgrass (Digitaria sanguinalis, DIGSA); assay: as above
How it was run: as §1

[8] = test system: redroot pigweed (Amaranthus retroflexus, AMARE); assay: as above
How it was run: as §1

[9] = test system: sicklepod (Cassia obtusifolia, CASOB); assay: as above
How it was run: as §1

[10] = test system: velvetleaf (Abutilon theophrasti, ABUTH); assay: as above
How it was run: as §1

[11] = test system: field corn (Zea mays L., var. Dekalb 535, CORN); assay: Pre-emerge greenhouse screening, crop safety (phytotoxicity rating)
How it was run: as §1

[12] = test system: soybean (Glycine max L., var. Pella 86, SOY); assay: as above
How it was run: as §1

[13] = test system: upland rice (Oryza sp., var.Tebonnet, RICE); assay: as above
How it was run: as §1

[14] = test system: barnyardgrass (Echinochloa crus-galli, ECHCG); assay: Post-emerge greenhouse herbicide activity screening, phytotoxicity rating
How it was run: as §1

[15] = test system: common ragweed (Ambrosia artemisiifolia L., AMBEL); assay: as above
How it was run: as §1

[16] = test system: green foxtail (Setaria viridis, SETVI); assay: as above
How it was run: as §1

[17] = test system: ivyleaf morningglory (Ipomoea hederacea, IPOHE); assay: as above
How it was run: as §1

[18] = test system: johnsongrass (Sorghum halepense, SORHA); assay: as above
How it was run: as §1

[19] = test system: lambsquarters (Chenopodium album, CHEAL); assay: as above
How it was run: as §1

[20] = test system: large crabgrass (Digitaria sanguinalis, DIGSA); assay: as above
How it was run: as §1

[21] = test system: redroot pigweed (Amaranthus retroflexus, AMARE); assay: as above
How it was run: as §1

[22] = test system: sicklepod (Cassia obtusifolia, CASOB); assay: as above
How it was run: as §1

[23] = test system: velvetleaf (Abutilon theophrasti, ABUTH); assay: as above
How it was run: as §1

[24] = test system: field corn (Zea mays L., var. Dekalb 535, CORN); assay: Post-emerge greenhouse screening, crop safety / corn selectivity (phytotoxicity rating)
How it was run: as §1

[25] = test system: soybean (Glycine max L., var. Pella 86, SOY); assay: Post-emerge greenhouse screening, crop safety (phytotoxicity rating)
How it was run: as §1

[26] = test system: upland rice (Oryza sp., var.Tebonnet, RICE); assay: as above
How it was run: as §1

Cn1c(C(F)(F)F)cc(=O)n(-c2cc(Oc3ccccc3)c(Cl)cc2F)c1=S [Compound 1-47]
ECHCG phytotoxicity rating (0-100 scale) ([1]; 125 g ai/ha): 80 | ECHCG phytotoxicity rating (0-100 scale) ([1]; 250 g ai/ha): 85 | AMBEL phytotoxicity rating (0-100 scale) ([2]; 125 g ai/ha): 95 | AMBEL phytotoxicity rating (0-100 scale) ([2]; 250 g ai/ha): 99 | SETVI phytotoxicity rating (0-100 scale) ([3]; 125 g ai/ha): 100 | SETVI phytotoxicity rating (0-100 scale) ([3]; 250 g ai/ha): 100 | IPOHE phytotoxicity rating (0-100 scale) ([4]; 125 g ai/ha): 95 | IPOHE phytotoxicity rating (0-100 scale) ([4]; 250 g ai/ha): 98 | SORHA phytotoxicity rating (0-100 scale) ([5]; 125 g ai/ha): 50 | SORHA phytotoxicity rating (0-100 scale) ([5]; 250 g ai/ha): 55 | CHEAL phytotoxicity rating (0-100 scale) ([6]; 125 g ai/ha): 100 | CHEAL phytotoxicity rating (0-100 scale) ([6]; 250 g ai/ha): 100 | DIGSA phytotoxicity rating (0-100 scale) ([7]; 125 g ai/ha): 95 | DIGSA phytotoxicity rating (0-100 scale) ([7]; 250 g ai/ha): 100 | AMARE phytotoxicity rating (0-100 scale) ([8]; 125 g ai/ha): 100 | AMARE phytotoxicity rating (0-100 scale) ([8]; 250 g ai/ha): 100 | CASOB phytotoxicity rating (0-100 scale) ([9]; 125 g ai/ha): 90 | CASOB phytotoxicity rating (0-100 scale) ([9]; 250 g ai/ha): 99 | ABUTH phytotoxicity rating (0-100 scale) ([10]; 125 g ai/ha): 100 | ABUTH phytotoxicity rating (0-100 scale) ([10]; 250 g ai/ha): 100 | CORN crop damage, phytotoxicity rating (0-100 scale) ([11]; 125 g ai/ha): 5 | CORN crop damage, phytotoxicity rating (0-100 scale) ([11]; 250 g ai/ha): 8 | SOY crop damage, phytotoxicity rating (0-100 scale) ([12]; 125 g ai/ha): 50 | SOY crop damage, phytotoxicity rating (0-100 scale) ([12]; 250 g ai/ha): 65 | RICE crop damage, phytotoxicity rating (0-100 scale) ([13]; 125 g ai/ha): 15 | RICE crop damage, phytotoxicity rating (0-100 scale) ([13]; 250 g ai/ha): 25 | ECHCG phytotoxicity rating (0-100 scale) ([14]; 125 g ai/ha): 60 | ECHCG phytotoxicity rating (0-100 scale) ([14]; 250 g ai/ha): 65 | AMBEL phytotoxicity rating (0-100 scale) ([15]; 125 g ai/ha): 70 | AMBEL phytotoxicity rating (0-100 scale) ([15]; 250 g ai/ha): 75 | SETVI phytotoxicity rating (0-100 scale) ([16]; 125 g ai/ha): 50 | SETVI phytotoxicity rating (0-100 scale) ([16]; 250 g ai/ha): 75 | IPOHE phytotoxicity rating (0-100 scale) ([17]; 125 g ai/ha): 75 | IPOHE phytotoxicity rating (0-100 scale) ([17]; 250 g ai/ha): 85 | SORHA phytotoxicity rating (0-100 scale) ([18]; 125 g ai/ha): 0 | SORHA phytotoxicity rating (0-100 scale) ([18]; 250 g ai/ha): 0 | CHEAL phytotoxicity rating (0-100 scale) ([19]; 125 g ai/ha): 99 | CHEAL phytotoxicity rating (0-100 scale) ([19]; 250 g ai/ha): 100 | DIGSA phytotoxicity rating (0-100 scale) ([20]; 125 g ai/ha): 10 | DIGSA phytotoxicity rating (0-100 scale) ([20]; 250 g ai/ha): 35 | AMARE phytotoxicity rating (0-100 scale) ([21]; 125 g ai/ha): 100 | AMARE phytotoxicity rating (0-100 scale) ([21]; 250 g ai/ha): 100 | CASOB phytotoxicity rating (0-100 scale) ([22]; 125 g ai/ha): 65 | CASOB phytotoxicity rating (0-100 scale) ([22]; 250 g ai/ha): 65 | ABUTH phytotoxicity rating (0-100 scale) ([23]; 125 g ai/ha): 100 | ABUTH phytotoxicity rating (0-100 scale) ([23]; 250 g ai/ha): 100 | CORN crop damage, phytotoxicity rating (0-100 scale) ([24]; 125 g ai/ha): 0 | CORN crop damage, phytotoxicity rating (0-100 scale) ([24]; 250 g ai/ha): 0 | SOY crop damage, phytotoxicity rating (0-100 scale) ([25]; 125 g ai/ha): 15 | SOY crop damage, phytotoxicity rating (0-100 scale) ([25]; 250 g ai/ha): 40 | RICE crop damage, phytotoxicity rating (0-100 scale) ([26]; 125 g ai/ha): 0 | RICE crop damage, phytotoxicity rating (0-100 scale) ([26]; 250 g ai/ha): 0
